Measured values published in US20060247263A1, “Substituted heterocyclic compounds and methods of use” (Amgen Inc., priority 2005, published 2006).

The compounds below were run on LPS induced TNF release (assay: Lipopolysaccharide-Activated THP1 Cell TNF Production Assay). Conditions: Homo sapiens, THP-1, THP1 cells, 3 h at 37° C., secreted TNF-α.
Type: cell-based
Protocol: Lipopolysaccharide-Activated THP1 Cell TNF Production Assay
THP1 cells are resuspended in fresh THP1 media (RPMI 1640, 10% heat-inactivated FBS, 1XPGS, 1XNEAA, plus 30 μM βME) at a concentration of 1E6/mL. One hundred microliters of cells per well are plated in a polystyrene 96-well tissue culture. One microgram per mL of bacterial LPS is prepared in THP1 media and is transferred to the wells. Test compounds are dissolved in 100% DMSO and are serially diluted 3 fold in a polypropylene 96-well microtiter plate (drug plate). HI control and LO control wells contain only DMSO. One microliter of test compound from the drug plate followed by 10 μL of LPS are transferred to the cell plate. The treated cells are induced to synthesize and secrete TNF-α at 37° C. for 3 h. Forty microliters of conditioned media are transferred to a 96-well polypropylene plate containing 110 μL of ECL buffer (50 mM Tris-HCl pH 8.0, 100 mM NaCl, 0.05% Tween 20, 0.05% NaN3 and 1% FBS) supplemented with 0.44 nM MAB610 monoclonal Ab (R&D Systems), 0.34 nM ruthenylated AF210NA polyclonal Ab (R&D Systems) and 44 μg/mL sheep anti-mouse M280 Dynabeads (Dynal). After a 2 h incubation at RT with shaking, the reaction is read on the ECL M8 Instrument (IGEN Inc.). A low voltage is applied to the ruthenylated TNF-α immune complexes, which in the presence of TPA (the active component in Origlo), results in a cyclical redox reaction generating light at […]. The amount of secreted TNF-α in the presence of compound compared with that in the presence of DMSO vehicle alone (HI control) is calculated using the formula:% control (POC)=(cpd−average LO)/(average HI−average LO)*100. Data (consisting of POC and inhibitor concentration in μM) is fitted to a 4-parameter equation (y=A+((B−A)/(1+((x/C)ˆD))), where A is the minimum y (POC) value, B is the maximum y (POC), C is the x (cpd concentration) at the point of inflection and D is the slope factor) using a Levenburg-Marquardt non-linear regression algorithm.

Row | SMILES | IC50 [µM]
1 | CN(c1cc(-c2ccccc2)c2ncn(C)c2c1)c1ccnc(NC2CCNCC2)n1 | ≤ 20
2 | CC(Cc1cccc(CO)c1)Nc1nccc(N(C)c2cc(-c3ccccc3)c3ncn(C)c3c2)n1 (stereo not shown) [(3-(2-(4-(Methyl(3-methyl-7-phenyl-3H-benzo[d]imidazol-5-yl)amino)pyrimidin-2-ylamino)propyl)phenyl)methanol] | ≤ 20
3 | CC(Cc1cccc(CN)c1)Nc1nccc(N(C)c2cc(-c3ccccc3)c3ncn(C)c3c2)n1 (stereo not shown) [N2-(1-(3-(Aminomethyl)phenyl)propan-2-yl)-N-4-methyl-N-4-(3-methyl-7-phenyl-3H-benzo[d]imidazol-5-yl)pyrimidine-2,4-diamine] | ≤ 20
4 | CC(Cc1cccc(CN=[N+]=[N-])c1)Nc1nccc(N(C)c2cc(-c3ccccc3)c3ncn(C)c3c2)n1 (stereo not shown) [N2-(1-(3-(Azidomethyl)phenyl)propan-2-yl)-N-4-methyl-N-4-(3-methyl-7-phenyl-3H-benzo[d]imidazol-5-yl)pyrimidine-2,4-diamine] | ≤ 20
5 | CC(Cc1cccc(CN)c1)Nc1nccc(N(C)c2cc(-c3ccccc3)c3c(c2)ncn3C)n1 (stereo not shown) [N2-(1-(3-(aminomethyl)phenyl)propan-2-yl)-N-4-methyl-N-4-(1-methyl-7-phenyl-1H-benzo[d]imidazol-5-yl)pyrimidine-2,4-diamine] | ≤ 20
6 | CN(c1cc(-c2ccccc2)c2ncn(C)c2c1)c1ccnc(NCCc2ccccc2Cl)n1 [N2-(2-chlorophenethyl)-N-4-methyl-N-4-(3-methyl-7-phenyl-3H-benzo[d]imidazol-5-yl)pyrimidine-2,4-diamine] | ≤ 20
7 | CN(c1cc(-c2ccccc2)c2ncn(C)c2c1)c1ccnc(NC2CCC(N)CC2)n1 (stereo not shown) [N2-((1 s,4s)-4-aminocyclohexyl)-N-4-methyl-N-4-(3-methyl-7-phenyl-3H-benzo[d]imidazol-5-yl)pyrimidine-2,4-diamine] | ≤ 20
8 | C[C@H](N)c1cccc(C[C@H](C)Nc2nccc(N(C)c3cc(-c4ccccc4)c4ncn(C)c4c3)n2)c1 [N2-((S)-1-(3-((S)-1-Aminoethyl)phenyl)propan-2-yl)-N-4-methyl-N-4-(3-methyl-7-phenyl-3H-benzo[d]imidazol-5-yl)pyrimidine-2,4-diamine] | ≤ 20
9 | CC(C)CNc1nccc(N(C)c2cc(-c3ccccc3)c3ncn(C)c3c2)n1 [N2-isobutyl-N-4-methyl-N-4-(3-methyl-7-phenyl-3H-benzo[d]imidazol-5-yl)-pyrimidine-2,4-diamine] | ≤ 20
10 | CN(c1cc(-c2ccccc2)c2nc[nH]c2c1)c1ccnc(NCCc2cccnc2)n1 [N4-Methyl-N-4-(7-phenyl-3H-benzo[d]imidazol-5-yl)-N-2-(2-(pyridin-3-yl)ethyl)-pyrimidine-2,4-diamine] | ≤ 20
11 | CN(c1cc(-c2ccccc2)c2ncn(C)c2c1)c1ccnc(NCCc2cccnc2)n1 [N4-methyl-N-4-(3-methyl-7-phenyl-3H-benzo[d]imidazol-5-yl)-N-2-(2-(pyridin-3-yl)ethyl)pyrimidine-2,4-diamine] | ≤ 20
12 | CN(c1cc(-c2ccccc2)c2ncn(C)c2c1)c1ccnc(NCCOc2ccccc2)n1 [N-4-methyl-N-4-(3-methyl-7-phenyl-3H-benzo[d]imidazol-5-yl)-N-2-(2-phenoxy-ethyl)pyrimidine-2,4-diamine] | ≤ 20
13 | CN(c1cc(-c2ccccc2)c2ncn(C)c2c1)c1ccnc(NC2CCN(C(=O)OC(C)(C)C)CC2)n1 [tert-Butyl 4-(4-(methyl(3-methyl-7-phenyl-3H-benzo[d]imidazol-5-yl)amino)-pyrimidin-2-ylamino)piperidine-1-carboxylate] | ≤ 20
